# Columns and labels:
# Test in all cases: DHODH Inhibition Assay
# [1] = biological target: T1, Dihydroorotate dehydrogenase (quinone), mitochondrial [100-517] (Plasmodium berghei (strain Anka), UniProt A0A509AEH5)
# T1 construct: 100-517
# T1 sequence (A0A509AEH5 whole entry): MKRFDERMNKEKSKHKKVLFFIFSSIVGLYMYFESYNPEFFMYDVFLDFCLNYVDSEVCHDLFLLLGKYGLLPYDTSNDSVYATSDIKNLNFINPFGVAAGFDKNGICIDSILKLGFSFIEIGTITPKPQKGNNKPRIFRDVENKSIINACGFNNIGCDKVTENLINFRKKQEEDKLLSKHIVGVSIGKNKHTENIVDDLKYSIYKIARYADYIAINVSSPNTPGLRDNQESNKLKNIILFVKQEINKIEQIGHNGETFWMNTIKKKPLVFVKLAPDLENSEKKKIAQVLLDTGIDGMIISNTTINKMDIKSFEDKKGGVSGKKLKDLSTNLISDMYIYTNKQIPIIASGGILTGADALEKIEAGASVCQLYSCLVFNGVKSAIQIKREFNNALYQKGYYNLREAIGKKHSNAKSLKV
# Method: (§1) The assays were carried out by using a colorimetric DCIP method, which uses the colorimetric reagent 2, 6-dichlorophenolindophenol as the final electron acceptor. DCIP reduction is stoichiometrically equivalent to oxidation of dihydroorotate. Changes in absorbance were quantified on a plate reader and data were analyzed to measure the reduction of DCIP as a decrease in absorbance at 600 nm.
# [2] = biological target: T2, Dihydroorotate dehydrogenase (quinone), mitochondrial (Plasmodium falciparum (isolate 3D7), UniProt Q08210)
# T2 sequence (Q08210 whole entry): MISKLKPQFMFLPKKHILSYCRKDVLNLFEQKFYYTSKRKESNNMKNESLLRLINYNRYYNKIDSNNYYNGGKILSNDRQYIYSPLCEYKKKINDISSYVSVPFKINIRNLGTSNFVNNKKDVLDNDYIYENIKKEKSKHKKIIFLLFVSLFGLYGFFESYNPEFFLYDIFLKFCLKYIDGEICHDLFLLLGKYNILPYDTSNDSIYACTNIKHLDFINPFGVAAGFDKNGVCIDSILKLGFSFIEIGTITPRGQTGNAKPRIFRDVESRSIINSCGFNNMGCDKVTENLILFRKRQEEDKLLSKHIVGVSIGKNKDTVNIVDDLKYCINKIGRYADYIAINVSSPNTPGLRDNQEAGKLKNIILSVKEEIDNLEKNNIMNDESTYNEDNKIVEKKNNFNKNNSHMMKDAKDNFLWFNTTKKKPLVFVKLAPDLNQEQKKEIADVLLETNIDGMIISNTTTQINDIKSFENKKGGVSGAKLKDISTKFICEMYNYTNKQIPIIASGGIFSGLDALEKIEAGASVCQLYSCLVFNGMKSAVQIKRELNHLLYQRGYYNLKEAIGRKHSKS
# Method: as §1
# [3] = biological target: T3, Dihydroorotate dehydrogenase (quinone), mitochondrial [30-395] (Homo sapiens, UniProt Q02127)
# T3 construct: 30-395
# T3 sequence (Q02127 30-395): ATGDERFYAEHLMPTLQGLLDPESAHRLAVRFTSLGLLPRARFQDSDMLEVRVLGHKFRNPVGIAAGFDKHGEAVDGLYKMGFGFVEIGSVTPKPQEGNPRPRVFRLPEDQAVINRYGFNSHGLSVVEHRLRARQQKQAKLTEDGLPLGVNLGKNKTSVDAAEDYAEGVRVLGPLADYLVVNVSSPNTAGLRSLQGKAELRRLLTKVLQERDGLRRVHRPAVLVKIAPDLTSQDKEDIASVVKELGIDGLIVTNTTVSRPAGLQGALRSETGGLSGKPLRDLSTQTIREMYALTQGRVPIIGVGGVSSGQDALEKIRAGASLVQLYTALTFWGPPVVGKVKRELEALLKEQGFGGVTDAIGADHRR
# Method: as §1
SMILES,IC50 [1] [µM],"IC50 ([2]; pH 8, 20 °C) [µM]",IC50 [2] [µM],IC50 [3] [µM]
"Cc1cc(Nc2ccccc2C#N)n2ncnc2n1 [2-({5-methyl-[1,2,4]triazolo[1,5-a]pyrimidin-7-yl}amino)benzonitrile]",> 100,> 100,,
"Cc1cc(Nc2c(F)c(F)c(F)c(F)c2F)n2ncnc2n1 [5-methyl-N-(2,3,4,5,6-pentafluorophenyl)-[1,2,4]triazolo[1,5-a]pyrimidin-7-amine]",> 100,,> 100,
"Cc1cc(Nc2ccc(F)c(F)c2F)n2ncnc2n1 [5-methyl-N-(2,3,4-trifluorophenyl)-[1,2,4]triazolo[1,5-a]pyrimidin-7-amine]",> 100,,,
"Cc1cc(Nc2c(F)c(F)cc(F)c2F)n2ncnc2n1 [5-methyl-N-(2,3,5,6-tetrafluorophenyl)-[1,2,4]triazolo[1,5-a]pyrimidin-7-amine]",> 100,> 100,,
"Cc1cc(Nc2cc(F)c(F)cc2F)n2ncnc2n1 [5-methyl-N-(2,4,5-trifluorophenyl)-[1,2,4]triazolo[1,5-a]pyrimidin-7-amine]",> 100,,,
"Cc1cc(Nc2c(F)cc(F)cc2F)n2ncnc2n1 [5-methyl-N-(2,4,6-trifluorophenyl)-[1,2,4]triazolo[1,5-a]pyrimidin-7-amine]",> 100,> 100,,
"Cc1cc(Nc2ccccc2C)n2ncnc2n1 [5-methyl-N-(2-methylphenyl)-[1,2,4]triazolo[1,5-a]pyrimidin-7-amine]",> 100,> 100,,
"Cc1cccc(Nc2cc(C)nc3ncnn23)c1 [5-methyl-N-(3-methylphenyl)-[1,2,4]triazolo[1,5-a]pyrimidin-7-amine]",> 100,,,
"Cc1cc(Nc2ccccc2C(F)(F)F)n2ncnc2n1 [5-methyl-N-[2-(trifluoromethyl)phenyl]-[1,2,4]triazolo[1,5-a]pyrimidin-7-amine]",> 100,> 100,,
Cc1cc(Nc2ccc3ccccc3c2)n2ncnc2n1 [JMC521864 Compund DSM1],,,,> 200
Cc1cc(Nc2ccccc2)n2ncnc2n1 [JMC521864 Compund DSM12],> 10,> 200,,> 200
"Cc1cc(Nc2cccc(F)c2F)n2ncnc2n1 [N-(2,3-difluorophenyl)-5-methyl-[1,2,4]triazolo[1,5-a]pyrimidin-7-amine]",> 100,,,
"Cc1cc(Nc2cc(F)ccc2F)n2ncnc2n1 [N-(2,5-difluorophenyl)-5-methyl-[1,2,4]triazolo[1,5-a]pyrimidin-7-amine]",> 100,> 50,,
"Cc1cc(Nc2c(F)cccc2F)n2ncnc2n1 [N-(2,6-difluorophenyl)-5-methyl-[1,2,4]triazolo[1,5-a]pyrimidin-7-amine]",> 100,> 100,,
"Cc1cc(Nc2ccccc2Cl)n2ncnc2n1 [N-(2-chlorophenyl)-5-methyl-[1,2,4]triazolo[1,5-a]pyrimidin-7-amine]",> 100,> 100,,
"Cc1ccc(Nc2cc(C)nc3ncnn23)c(F)c1 [N-(2-fluoro-4-methylphenyl)-5-methyl-[1,2,4]triazolo[1,5-a]pyrimidin-7-amine]",> 100,,,
"Cc1cc(Nc2ccccc2F)n2ncnc2n1 [N-(2-fluorophenyl)-5-methyl-[1,2,4]triazolo[1,5-a]pyrimidin-7-amine]",> 100,> 100,,
"Cc1cc(Nc2cccc(F)c2)n2ncnc2n1 [N-(3-fluorophenyl)-5-methyl-[1,2,4]triazolo[1,5-a]pyrimidin-7-amine]",> 100,,,
"Cc1cc(Nc2ccc(Cc3ccccc3)cc2)n2ncnc2n1 [N-(4-benzylphenyl)-5-methyl-[1,2,4]triazolo[1,5-a]pyrimidin-7-amine]",> 100,,,
"Cc1cc(Nc2ccc(F)cc2)n2ncnc2n1 [N-(4-fluorophenyl)-5-methyl-[1,2,4]triazolo[1,5-a]pyrimidin-7-amine]",> 100,,,
"COc1ccc(Nc2cc(C)nc3ncnn23)cc1 [N-(4-methoxyphenyl)-5-methyl-[1,2,4]triazolo[1,5-a]pyrimidin-7-amine]",> 50,,,
"Cc1cc(Nc2ccc3cc4ccccc4cc3c2)n2ncnc2n1 [N-(anthracen-2-yl)-5-methyl-[1,2,4]triazolo[1,5-a]pyrimidin-7-amine]",3.7,,,> 200
"Cc1cc(Nc2cc(C(F)(F)F)cc(C(F)(F)F)c2)n2ncnc2n1 [N-[3,5-bis(trifluoromethyl)phenyl]-5-methyl-[1,2,4]triazolo[1,5-a]pyrimidin-7-amine]",> 100,,> 100,

# From BindingDB's records for doi:10.1021/jm801343r (University of Washington At Seattle, 2009)
